In patent US20120149574A1, “Methods and Compositions for Managing Water Quality in a Body of Water” (priority 2010, published 2012):

How the values were obtained:
algae [1] = assay: Comparative pond treatment vs. copper sulfate alone, multiple applications: algae; type: in vivo, green algae (Chlorophyta), cyanobacteria (Cyanophyta)
Protocol: (§1) One pond was treated with a liquid composition prepared as in Example 1 (hereinafter termed “Composition E1”) and the other with copper sulfate pentahydrate. Both ponds were treated with the same concentration of copper on the same days. Five algaecide applications, each approximately one week apart, were conducted on the corresponding pond as a surface spray. The first application was a 1 ppm copper rate, whereas the following applications were all 0.5 ppm copper. All five treatments were completed by the 34th day following the initial treatment (“DAT”), though water sampling continued to evaluate changes in algae growth and water clarity. Representative water samples were periodically collected from each of the ponds at the same durations following treatments. […] As mentioned previously, when used alone, alum is generally applied at such high doses that a buffer is concurrently applied to prevent dramatic changes in water quality that can result in acute toxicity to aquatic organisms.

[2] = Comparative pond treatment, multiple applications: turbidity, phosphorus, water quality; conditions: five applications, FIGS. 11 and 12
Protocol: as §1

algae [3] = assay: Comparative pond treatment vs. copper sulfate alone, single application: algae; type: in vivo, green algae (Chlorophyta), cyanobacteria (Cyanophyta)
Protocol: (§2) Two ponds of similar dimensions (0.1 surface acres, 4 foot average depth) and similar water character, located beside each other, were used in this experiment. Both ponds were treated once (immediately following the initial sampling event) with the same concentration of copper, 1 ppm, and monitored through time. One pond was treated with Composition E1 and the other with copper sulfate pentahydrate. The objectives were 1) to evaluate the change in algae assemblage composition, 2) to measure algaecidal impacts and re-growth of algae, 3) to measure changes in phosphorus and turbidity following treatment.

[4] = Comparative pond treatment, single application: turbidity and total phosphorus; conditions: single application 1 ppm copper
Protocol: as §2

O.O.O.O.O.O=S(=O)([O-])[O-].[Cu+2] [copper sulfate, copper sulfate pentahydrate]
chlorophyll levels following cessation of the algaecide treatments (algae [1]; after fifth application (34 DAT) (FIG. 9)): rapidly and significantly increased
algal assemblage composition (algae [1]; during and after five applications (FIGS. 13 and 14)): cyanobacteria (Cyanophyta) became dominant
chlorophyll a concentration, highest measurements (algae [1]; five applications (1 ppm then 0.5 ppm copper), sampling to 69 DAT (FIG. 9), copper sulfate: many measurements, Composition E1: on one occasion): exceeding 100 μg/L
total phosphorus (TP) and free reactive phosphorus (FRP) concentrations over time [2]: substantially higher than the Composition E1-treated pond
algal assemblage following treatment (algae [3]; single application 1 ppm copper (FIGS. 18 and 19)): remained dominated by cyanobacteria
decrease of treated algae (algae [3]; single application 1 ppm copper, 7 DAT): 78%
chlorophyll a (algae [3]; single application 1 ppm copper, 7 DAT (FIG. 15)): significantly decreased
chlorophyll a (algae [3]; single application 1 ppm copper, 14 DAT (FIG. 15)): significantly higher
increase in algal densities (algae [3]; single application 1 ppm copper, between 7 and 14 DAT): 350%
total phosphorus ([4]; 7 DAT (FIG. 17)): little change
total phosphorus ([4]; 14 DAT vs initial (FIG. 17)): notable increase from initial levels
